No end group written: not given here.

Assay [1] deals with T1, DPP9 (Homo sapiens, UniProt Q86TI2).
T1 construct: made in house; host or cells: Sf9 insect cells (baculovirus)
In words: Inhibition of GP-AMC hydrolysis by purified recombinant DPP9 at a single peptide concentration. It is filed as biochemical. The note with it: 25 nM DPP9, 0.2 mM GP-AMC, 10 μM peptide; DPP9 alone = 100.3. As to the method: Accordingly, the peptide is capable of inhibiting the activity of wild-type DPP9 (SEQ ID NO: 6) to a level of 35 to 5% of the activity of wild-type DPP9 (SEQ ID NO: 6) if not inhibited, as determined in an assay using 25 nM purified DPP9, 0.2 mM GP-AMC, and 14 μM of the peptide to be tested, in TB buffer (20 mM Hepes/KOH pH 7.3, 110 mM potassium acetate, 2 mM Mg acetate, 0.5 mM EGTA), supplemented with 0.2% Tween-20, 1 mM dithiothreitol. Release of AMC from GP-AMC is measured using the Appliskan microplate fluorimeter (Thermo Scientific) with 380 nm (excitation) and 480 nm (emission) filters and the Skanit software, and analysed using the Prism software.
(§1) Kinetics assays: Purified recombinant DPP9 (25 nM) was incubated with varying concentrations of GP-AMC, in TB supplemented with 0.2% Tween-20, 1 mM ditiothreitol. For inhibition assays, inhibitory peptides were added directly to the reaction mixture. For activation by SUMO 0.2 mg/ml BSA, was added to the buffer to prevent non specific binding. DPP9 were incubated with 2.5 μM of either SUMO1, SUMO1 E67A, SUMO2 for 2 hour on ice prior to the assay. Alternatively DPP9 was incubated with 1 μM of RanGAP or RanGAP modified with either SUMO1 or SUMO2 for 2 hours prior to the assay. Fluorescence was measured using the Appliskan microplate fluorimeter (Thermo Scientific) with 380 nm (excitation) and 480 nm (emission) filters and the Skanit software, and analysed using the Prism software. Each experiment was performed at least three times, in replicates of four.
To improve the inhibition of DPP9, the inventors tested several peptide libraries composed of truncated variants of the EIL peptide (>80% pure, ordered from Genescript). These peptides were incubated with recombinant DPP9 and analysed GP-AMC hydrolysis. AMC release was then compared to samples containing either DPP9 alone, or the EIL peptide.

For assay [2], the target named is T1, DPP9. In words: Kinetics assay, Ki for inhibition of DPP9 (GP-AMC hydrolysis). In kind it is biochemical. As to the method:
(§2) Enzyme kinetics and the Ki of DPP8 or DPP9 may be determined as follows: 25 nM purified recombinant enzyme (DPP9 or DPP8) are incubated with varying concentrations of GP-AMC ([…] GP-AMC), in TB buffer (20 mM Hepes/KOH pH 7.3, 110 mM potassium acetate, 2 mM Mg acetate, 0.5 mM EGTA), supplemented with 0.2% Tween-20, 1 mM dithiothreitol. Experiments are performed in triplicates. To measure Ki values, for each set of experiments, inhibitory peptides are added to DPP9 or DPP8. Peptide concentrations tested are in the range between 0.04 to 50 μM. Release of AMC from GP-AMC is measured using the Appliskan microplate fluorimeter (Thermo Scientific) with 380 nm (excitation) and 480 nm (emission) filters and the Skanit software, and analysed using the Prism software.
(§3) A&B 25 nM purified recombinant (A) DPP9 or (B) DPP8 were incubated with varying concentrations of the EIL peptide (0, 3.3 μM and 6.6 μM) and tested for hydrolysis of GP-AMC (1000, 500, 250, 125, 0 μM). C. 25 nM DPPIV was tested for the hydrolysis of GP-AMC (500, 250, 125, 0 μM) in the presence of 0 or 13 μM EIL peptide. Fluorescence was measured using the Appliskan microplate fluorimeter (Thermo Scientific) with 380 nm (excitation) and 480 nm (emission) filters and the Skanit software, and analysed using the Prism software. Each experiment was performed at least three times, in replicates of four.
as §1

In assay [3] the target is T2, DPP8 (Homo sapiens, UniProt Q6V1X1).
T2 construct: made in house; host or cells: Sf9 insect cells (baculovirus)
Briefly: Kinetics assay, Ki for inhibition of DPP8 (GP-AMC hydrolysis). In kind it is biochemical. As to the method: as §2, §3

In assay [4] the target is DPPIV (Homo sapiens, UniProt P27487). In words: GP-AMC hydrolysis by DPPIV in the presence of peptide. It is filed as biochemical. The note with it: concentrations measured up to 50 μM. As to the method:
Preferably, the peptide is capable of inhibiting the activity by wild-type DPP9 (SEQ ID NO: 6) to a level of 30 to 5%, 29 to 5%, 28 to 5%, 27 to 5%, 26 to 5%, 25 to 5%, 24 to 5%, 23 to 5%, 22 to 5%, 21 to 5%, 20 to 5%, 19 to 5%, 18 to 5%, 17 to 5%, 16 to 5%, 15 to 5%, 14 to 5%, 13 to 5%, 12 to 5%, 11 to 5%, 10 to 5%, 9 to 5%, 8 to 5%, such as 7.5 to 5% of the activity of wild-type DPP9 (SEQ ID NO: 6) if not inhibited. […] Release of AMC from GP-AMC is measured using the Appliskan microplate fluorimeter (Thermo Scientific) with 380 nm (excitation) and 480 nm (emission) filters and the Skanit software, and analysed using the Prism software.
as §3

The subject of assay [5] is HeLa cells. In words: Cytosolic prolyl peptidase activity of HeLa cells treated with peptide alone or with Pep-1. Conditions: 5 μM peptide, 30 min, also in the absence of carrier peptide Pep-1. In kind it is cell-based, human. As to the method:
In another experiment, HeLa cells were treated for 30 minutes with either 5 μM […] (SEQ ID NO: 38) alone or in complex with the carier peptide Pep-1. Cells were then typsinized and cytosolic extracts were prepared and tested for cleavage of the model substrate GP-AMC. Upper panel: […] (SEQ ID NO: 38) was allowed to form a complex with carrier peptide Pep-1 at a molar ratio of 1:10 (cargo:carrier) in FCS free DMEM for 30 min at 37° C. Lower panel: As a comparison, the inhibitory peptide […] was used also in the absence of carrier peptide, at the same concentration. For control, the solvent DMSO was used. These mixtures were overlaid onto HeLa cells allowing the entry for 30 minutes at 37° C. Cells were then trypsinized and lysed in TB buffer containing 0.2% Tween. After ultracentrifugation, the cytosolic extract were probed for DPP activity using […] of the fluorogenic substrate GP-AMC. Each experiment was performed in triplicates.

For assay [6], the system named is HeLa cells. Briefly: MTT proliferation assay of HeLa cells expressing the peptide. It is filed as cell-based, human. Conditions: Ubiquitin-SLRFLYEG-YFP construct, 32 hours after transfection, vs control plasmid or mock. As to the method: To test whether DPP8/9 inhibition effects cell viability, the inventors performed MTT (3-4,5-dimethylthiazol-2-yl)-2,5-diphenyltetrazolium bromide) based assays, which are widely used to measure cell proliferation and growth (e.g. in clinical settings for testing tumor sensitivity to chemotherapeutic agents). This assay involves the conversion of the water soluble MTT to an insoluble formazan. The formazan is then solubilized in 0.1N HCl. Absorbance is then determined at 570 nm. For a prolonged exposure of cells to the allosteric DPP8/9 inhibitor […] (SEQ ID NO: 38), the inventors cloned the peptide into a mammalian expression vector pEYFP-N1 from Clontech. The peptide inhibitor contains a serine at its amino-termini. Thus, to avoid expression of the peptide with a methionine residue at its amino terminus, it was cloned in frame with ubiquitin. Once expressed in cells, the ubiquitin moiety is cleaved by ubiquitin isopeptidases to release the […]-YFP (SEQ ID NO: 38) construct. A control construct was included that lacked the […] (SEQ ID NO: 38) peptide (Ubiquitin-YFP). […] 32 hours after transfection, cells were analyzed via a standard MTT assay.
Briefly, cell media was removed and replaced by 0.5 mg/ml of MTT reagent. […] Absorbance was measured with a microplate fluorimeter. […]
A general note: Tetrazolium dyes change colour on reduction, which living cells bring about.

In assay [7] the target is T3, SUMO1-DPP9 interaction (Homo sapiens, UniProt P63165).
T3 construct: made in house; DPP9: Sf9 insect cells
In words: ELISA: competition of SUMO1 binding to immobilized DPP9. Conditions: SUMO1 pre-incubated with varying concentrations of peptide. As to the method: A. HA-tagged DPP9 mutants (DPP9V285A, DPP9V287A, DPP9I288A and DPP9V290) were expressed in HEK293T cells and purified using anti-HA beads agarose. Purified DPP9 proteins (input) were then incubated with SUMO1-immobilized beads. Bound DPP9 was eluted and analysed by western blotting using anti HA antibodies. B. Alignment of the amino-acid sequences corresponding to the ‘arms’ of DPP9 (SEQ ID NO: 3), DPP8 (SEQ ID NO: 4) and DPPIV (SEQ ID NO: 5). C A homology model of DPP9 (published by (Park et al., 2008)), shown from the ‘back’ side and the ‘front’ (180° rotation) side, which also reveal the so-called side opening. Color code: the hydrolase domain is dark grey, the eight-bladed propeller is light grey and the extended SUMO-binding-arm is indicated. D. Results of an ELISA assay. […] The SUMO1-peptide mix was then added to immobilized DPP9, and interacting SUMO1 was quantified using SUMO1-specific antibodies.
ELISA: A 96 well plate (Immuno 96 MicroWell™ Solid Plates, Nunc) was coated with 600 ng purified recombinant proteins per well in 100 μl TB, overnight at 4° C. […] Interacting proteins were detected using specific antibodies diluted in ELISA buffer: goat anti DPP9 antibody or anti GMP antibody (SUMO1). […] Absorbance was measured at 420 nm on an Appliskan microplate fluorimeter (Thermo Scientific) and the Skanit software. […]

Assay [8] concerns HEK293 cells. Briefly: Cytosolic prolyl peptidase activity of HEK293 cells treated with peptide plus carrier Peptide 1. In kind it is cell-based, human. Conditions: 5 μM peptide with 100 μM Peptide 1, 30 min, 5 μg extract, 500 μM GP-AMC. As to the method: Cells were incubated for 30 minutes with 0 μM, 5 μM or 10 μM […] (SEQ ID NO: 40) and 100 μM carrier pep-1. Cytosolic extracts of cells (5 μg) were then tested for hydrolysis of 0.5 mM GP-AMC.
The inventors tested whether the inhibitory peptides can be inserted into cells. For this purpose the inventors established a method using a well characterized carrier peptide: Peptide 1 ([…]; SEQ ID NO: 48), in combination with […] (SEQ ID NO: 40). To test for effective inhibition, the inventors measured for hydrolysis of an artificial DPP8 and DPP9 substrate: GP-AMC, specifically in cytosolic extracts. For this, 5 μM or 10 μM of […] (SEQ ID NO: 40) were incubated with 100 μM Peptide 1, at 37° C. for 30 minutes, in […] DMEM without FCS, supplemented with glutamine and antibiotics. Once a complex was formed between the […] (SEQ ID NO: 40) and peptide 1, it was added to HEK293 cells (human embryonic kidney cells), grown in 24 well plates (50% confluence), and incubated for 30 minutes at 37° C. Cells were then trypsinized and washed twice with PBS buffer. Cell pellet was shock frozen in liquid nitrogen. […] Fluorescence was measured using the Appliskan microplate fluorimeter (Thermo Scientific) with 380 nm (excitation) and 480 nm (emission) filters and the Skanit software, and analysed using the Prism software.

T1 sequence (Q86TI2 1-892 isoform Q86TI2-2): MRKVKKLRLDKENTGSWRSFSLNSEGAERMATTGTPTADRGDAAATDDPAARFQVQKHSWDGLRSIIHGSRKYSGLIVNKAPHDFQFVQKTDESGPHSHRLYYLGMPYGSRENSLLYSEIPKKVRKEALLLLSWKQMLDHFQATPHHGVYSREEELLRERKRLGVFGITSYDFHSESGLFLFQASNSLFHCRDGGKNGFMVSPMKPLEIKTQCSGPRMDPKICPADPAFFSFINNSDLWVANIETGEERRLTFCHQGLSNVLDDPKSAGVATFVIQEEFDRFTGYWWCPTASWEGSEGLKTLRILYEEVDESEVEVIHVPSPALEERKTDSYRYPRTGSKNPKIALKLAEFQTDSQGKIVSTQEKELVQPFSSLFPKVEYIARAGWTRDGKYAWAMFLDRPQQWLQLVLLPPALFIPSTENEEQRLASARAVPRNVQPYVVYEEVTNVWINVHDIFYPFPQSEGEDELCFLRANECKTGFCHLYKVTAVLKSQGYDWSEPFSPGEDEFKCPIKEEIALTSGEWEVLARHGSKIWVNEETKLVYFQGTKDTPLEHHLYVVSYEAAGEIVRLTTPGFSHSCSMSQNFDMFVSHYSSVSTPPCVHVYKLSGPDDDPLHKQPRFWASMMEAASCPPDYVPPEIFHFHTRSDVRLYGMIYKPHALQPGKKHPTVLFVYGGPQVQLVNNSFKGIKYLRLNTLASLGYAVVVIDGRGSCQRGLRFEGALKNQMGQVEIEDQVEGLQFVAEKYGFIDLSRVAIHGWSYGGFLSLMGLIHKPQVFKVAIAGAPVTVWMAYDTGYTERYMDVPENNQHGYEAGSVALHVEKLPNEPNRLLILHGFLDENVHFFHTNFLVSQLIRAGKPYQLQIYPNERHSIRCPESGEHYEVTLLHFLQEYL
T2 sequence (Q6V1X1 whole entry): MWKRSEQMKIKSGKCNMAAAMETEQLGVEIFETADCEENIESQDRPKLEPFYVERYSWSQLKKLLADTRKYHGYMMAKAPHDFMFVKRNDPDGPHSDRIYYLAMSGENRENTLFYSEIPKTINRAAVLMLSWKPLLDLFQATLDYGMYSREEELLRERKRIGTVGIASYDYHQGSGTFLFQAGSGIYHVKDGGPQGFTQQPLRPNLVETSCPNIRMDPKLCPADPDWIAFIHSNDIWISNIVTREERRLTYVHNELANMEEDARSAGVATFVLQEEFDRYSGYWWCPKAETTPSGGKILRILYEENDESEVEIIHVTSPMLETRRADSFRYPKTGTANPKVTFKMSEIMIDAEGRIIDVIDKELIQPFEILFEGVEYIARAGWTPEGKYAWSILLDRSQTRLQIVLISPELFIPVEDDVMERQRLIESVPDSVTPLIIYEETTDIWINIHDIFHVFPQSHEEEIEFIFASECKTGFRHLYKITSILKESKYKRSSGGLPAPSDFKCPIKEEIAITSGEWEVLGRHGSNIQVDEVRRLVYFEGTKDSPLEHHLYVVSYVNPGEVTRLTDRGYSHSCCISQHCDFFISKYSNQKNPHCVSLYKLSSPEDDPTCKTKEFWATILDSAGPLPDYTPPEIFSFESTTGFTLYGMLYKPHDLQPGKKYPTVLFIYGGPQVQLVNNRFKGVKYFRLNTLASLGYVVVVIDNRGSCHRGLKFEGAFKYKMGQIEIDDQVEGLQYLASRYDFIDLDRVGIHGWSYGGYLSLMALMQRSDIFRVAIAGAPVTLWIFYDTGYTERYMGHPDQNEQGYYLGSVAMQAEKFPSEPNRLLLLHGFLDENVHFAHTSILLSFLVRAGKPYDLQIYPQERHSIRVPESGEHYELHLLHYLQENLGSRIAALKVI
T3 sequence (P63165 2-97 limits assumed): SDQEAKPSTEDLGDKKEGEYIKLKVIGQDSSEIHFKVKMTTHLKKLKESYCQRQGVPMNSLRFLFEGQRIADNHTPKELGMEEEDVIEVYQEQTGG
DPPIV, sequence (P27487 whole entry): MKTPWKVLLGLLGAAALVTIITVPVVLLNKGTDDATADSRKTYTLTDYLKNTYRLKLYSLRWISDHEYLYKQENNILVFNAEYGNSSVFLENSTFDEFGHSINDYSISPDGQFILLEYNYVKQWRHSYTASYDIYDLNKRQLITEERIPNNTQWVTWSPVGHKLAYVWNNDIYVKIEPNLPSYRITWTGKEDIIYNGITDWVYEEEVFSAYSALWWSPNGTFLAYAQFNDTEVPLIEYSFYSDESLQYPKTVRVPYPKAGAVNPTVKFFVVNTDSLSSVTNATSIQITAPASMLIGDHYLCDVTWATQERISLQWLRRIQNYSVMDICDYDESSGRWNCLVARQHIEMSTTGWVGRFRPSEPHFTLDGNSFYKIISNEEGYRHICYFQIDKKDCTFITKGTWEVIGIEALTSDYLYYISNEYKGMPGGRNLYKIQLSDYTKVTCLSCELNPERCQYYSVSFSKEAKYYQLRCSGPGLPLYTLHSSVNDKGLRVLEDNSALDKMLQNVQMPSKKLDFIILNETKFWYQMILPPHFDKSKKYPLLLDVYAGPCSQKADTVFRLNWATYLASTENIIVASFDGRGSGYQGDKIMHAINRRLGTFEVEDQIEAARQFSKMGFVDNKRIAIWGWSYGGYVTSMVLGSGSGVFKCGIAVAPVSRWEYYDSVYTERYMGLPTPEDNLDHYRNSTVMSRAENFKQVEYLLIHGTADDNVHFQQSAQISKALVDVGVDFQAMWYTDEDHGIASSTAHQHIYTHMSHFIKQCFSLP

As for H-SLRFLYEG, in assay [1], the “% DPP9 activity (Mean)” value is on record as 10.92%. For the same substance, in assay [2], the “fold increased efficiency compared to the EIL peptide (Ki DPP9)” value stood at 18.5 fold. The Ki in assay [2] (read-out: Ki for DPP9) was determined as 400 nM. Further, in assay [3], the affinity corresponds to a Ki of 3600 nM and the “fold lower affinity for DPP8 compared to DPP9” value is reported as 9 fold. Further, the “inhibitory effect towards DPPIV” value in assay [4] is recorded as “no inhibitory effect”. For the same substance, the “cytosolic prolyl peptidase activity after exposure of cells” value in assay [5] is “inhibits cytosolic prolyl peptidase activity”. Also, the “reduction in cell proliferation” value in assay [6] is listed as “at least 50%”.

Regarding “VEVIHVPSPALEERKTDSYR (listed as Homo sapiens) [DPP9-arm peptide, peptide corresponding to the extended arm of DPP9 (285-304)]”, in assay [7], the “competition with DPP9 for binding to SUMO1” value is reported as “competed with DPP9 for binding to SUMO1 in a concentration dependent manner”.

Consider SLRFLYAG, for which, in assay [8], the “inhibition of cytosolic prolyl peptidase activity” value was roughly 30%.

The term Ki denotes a dissociation constant, usually derived from enzyme kinetics or from competition with a known ligand.

These data come from patent publication US9593148B2, “DPP8 and DPP9 peptide inhibitors” (GEORG-AUGUST-UNIVERSITAT GOTTINGEN STIFTUNG OFFENTLICHEN …, priority 2012, dated 2017).
